According to US20230355605A1, “DRUG FOR ENHANCING FIBRINOLYTIC SYSTEM, AND USE THEREFOR” (priority 2020, published 2023):

Columns and labels:
[1] = test system: mouse model of bleomycin-induced pulmonary fibrosis; assay: Mouse model of bleomycin-induced pulmonary fibrosis; format: in vivo
Experimental: The improvement effect of the present compound on pulmonary fibrosis (remodeling after lung damage) was evaluated using a mouse model of bleomycin-induced pulmonary fibrosis. […] Because of similarity of histopathological changes to pulmonary fibrosis in humans, this mouse model is widely used for the evaluation of the drug efficacy.
To a fibrosis mouse model (fibrosis model group) given a single dose of bleomycin (1.2 mg/mL), the present compound (0.75 mg/kg/day) was orally administered for 21 days (present compound administration group, n = 9), and biochemical analysis of the lungs and measurement of clinical conditions of the lungs were performed on day 22. For comparison, instead of the present compound, the solvent used to dissolve the present compound was administered to a fibrosis model group in the same manner (vehicle group, n = 10), and biochemical analysis and measurement of clinical conditions of the lungs were performed. As a positive control group, a dexamethasone administration group (0.25 mg/kg administration, n = 9) was used. The biochemical analysis was performed using lung hydroxyproline values as an index. The clinical conditions of the lungs were evaluated by performing Masson’s trichrome staining and calculating Ashcroft scores according to a report of Ashcroft et al. (Ashcroft T et al., J Clin Pathol, 1988; 41:467). The clinical conditions were confirmed by comparing a normal mouse group (normal group, n = 10) with the vehicle group (n = 10), and the improvement effect of the present compound on pulmonary fibrosis was evaluated by comparing the vehicle group (n = 10) with the present compound administration group (n = 9). Differences between the mean values of the groups were tested by the Bonferroni selected pairs test using Prism 4 (GraphPad Software).
Table 1 and FIG. 3(A) and FIG. 3(B) show the results of comparisons of the lung hydroxyproline values and the Ashcroft scores in the groups. The mean values of the groups are expressed as mean±SD, and examination was performed at a 5% significance level.

CML patients = details: according to the NCCN guidelines; cited from earlier work
rats = assay: 4-week repeated oral dose toxicity study in rats; format: in vivo; details: rats; study details of the similar compound not given
[2] = test system: cynomolgus monkey model of saphenous arterial thrombus; assay: Cynomolgus monkey model of saphenous arterial thrombus (PIT model); format: in vivo; details: oral administration to monkeys
Experimental: The thrombus formation inhibitory effect of the present compound was evaluated using a cynomolgus monkey model of saphenous arterial thrombus (PIT model) .
Before the procedure, the present compound suspended in a 0.5% CMC-Na aqueous solution was orally administered to test groups of cynomolgus monkeys at dosages of 0.1, 0.3, 1, and 3 mg/kg. […] A light irradiation probe was placed on a saphenous artery of each cynomolgus monkey to cause thrombus formation by applying green light of 540 nm for 20 minutes at the time of intravenously administering rose bengal (20 mg/kg). A decrease in blood flow due to this thrombus formation was measured with a pulse Doppler blood flowmeter, and the thrombus formation inhibitory effect of the present compound was evaluated by measuring the occlusion time on the first day and the cumulative occlusion time.

[3] = test system: COVID-19 patients with moderate to severe lung damage; details: 13 COVID-19 patients, inhaled; cited from earlier work
[4] = day 22, present compound 0.75 mg/kg/day oral 21 days, dexamethasone 0.25 mg/kg, mean±SD

For `C[C@@H]1C[C@H]2[C@@H]3CCC4=CC(=O)C=C[C@]4(C)[C@@]3(F)[C@@H](O)C[C@]2(C)[C@@]1(O)C(=O)CO` [Dexamethazone, dexamethasone, reference compound], the “Ashcroft score compared with vehicle group” value ([1]; 5% significance level) was “significantly lower”, the “lung hydroxyproline value compared with vehicle group” value ([1]; 5% significance level) was “no significant difference” and the Ashcroft score [1, 4] was 2.3±0.1. For the same molecule, the Lung hydroxyproline value [1, 4] was 71.0±6.7 µg/left lung.

In the case of `Cc1ccc(NC(=O)c2ccc(CN3CCN(C)CC3)cc2)cc1Nc1nccc(-c2cccnc2)n1` [imatinib], the “patients who could maintain DMR for more than 2 years after 3 years of treatment” value (CML patients) is given as “about 5 % of all CML cases”.

For `O=C(Nc1ccc(Cl)cc1C(=O)O)c1cccc(-c2ccccc2)c1` [similar compound, 2-([biphenyl-3-ylcarbonyl]amino)-5-chlorobenzoic acid, reference compound], the no-observed-adverse-effect level (rats) was 20 mg/kg/day and the minimum effective dosage [2] was 0.3 mg/kg.

B1: plasminogen: inhaled plasminogen given to COVID-19 patients in the clinical study by Wu et al. (protein, UniProt P00747 20-810, looked up)
Plasminogen: EPLDDYVNTQGASLFSVTKKQLGAGSIEECAAKCEEDEEFTCRAFQYHSKEQQCVIMAENRKSSIIIRMRDVVLFEKKVYLSECKTGNGKNYRGTMSKTKNGITCQKWSSTSPHRPRFSPATHPSEGLEENYCRNPDNDPQGPWCYTTDPEKRYDYCDILECEEECMHCSGENYDGKISKTMSGLECQAWDSQSPHAHGYIPSKFPNKNLKKNYCRNPDRELRPWCFTTDPNKRWELCDIPRCTTPPPSSGPTYQCLKGTGENYRGNVAVTVSGHTCQHWSAQTPHTHNRTPENFPCKNLDENYCRNPDGKRAPWCHTTNSQVRWEYCKIPSCDSSPVSTEQLAPTAPPELTPVVQDCYHGDGQSYRGTSSTTTTGKKCQSWSSMTPHRHQKTPENYPNAGLTMNYCRNPDADKGPWCFTTDPSVRWEYCNLKKCSGTEASVVAPPPVVLLPDVETPSEEDCMFGNGKGYRGKRATTVTGTPCQDWAAQEPHRHSIFTPETNPRAGLEKNYCRNPDGDVGGPWCYTTNPRKLYDYCDVPQCAAPSFDCGKPQVEPKKCPGRVVGGCVAHPHSWPWQVSLRTRFGMHFCGGTLISPEWVLTAAHCLEKSPRPSSYKVILGAHQEVNLEPHVQEIEVSRLFLEPTRKDIALLKLSSPAVITDKVIPACLPSPNYVVADRTECFITGWGETQGTFGAGLLKEAQLPVIENKVCNRYEFLNGRVQSTELCAGHLAGGTDSCQGDSGGPLVCFEKDKYILQGVTSWGLGCARPNKPGVYVRVSRFVTWIEGVMRNN
For B1, the lung damage [3] is given as “rapid improvement in lung damage”.

B2: plasmin: as printed for NPL 27; probably the inhaled plasminogen of b10 (protein, UniProt P00747 20-810, looked up)
Plasminogen: B1 Plasminogen
In the case of B2, the lung damage [3] is listed as “improved”.
